Patent US20130004589A1, “DIVALENT CATION/ANION PAIR CONTAINING COMPOSITIONS AND METHODS FOR TREATING AND/OR PREVENTING ENZYMATIC IRRITATION” (priority 2011, published 2013)

Assays:
[1] = test system: trypsin; experiment: EnzChek trypsin inhibition assay of talc mixed with divalent cation salts (Example 3); format: biochemical; details: for % synergistic activity relative to hypothetic additive value: Table 3, all materials 0.1% (g/mL)
Method: The objective of the following experiment was to determine whether and to what extent adding a divalent cation to talc inhibited trypsin activity in an in vitro assay. The inhibition of trypsin-induced cleavage of a fluorescent casein peptide was measured using the EnzChek™ protease assay kit, following manufacturer's instructions (EnzChek™ Protease Assay Kits Product Information, Revised; Molecular Probes, Eugene Oreg.). […] Trypsin working solution (Sigma, St. Louis, Mo., unit/mL) was prepared in digestion buffer provided in the assay kit. Stock solution of BODIPY FL casein (trypsin substrate, mg/mL) was prepared by adding 0.2 mL to the substrate vials (provided in kit), and the final substrate working solution (10 microgram/mL) was prepared by dilution in digestion buffer (pH 7.8). Following incubation of the trypsin, with or without the test materials, with the BODIPY fluorescent casein substrate, at room temperature for one hour, fluorescence was measured (excitation 485 nm/emission 530 nm) using a SpectraMax microtiter plate reader (Molecular Devices Corporation, Sunnyvale, Calif.) and Softmax Pro software (Molecular Devices Corporation). Each experiment was performed in three replicates.

[2] = test system: trypsin; experiment: EnzChek trypsin inhibition assay of zinc oxide/acid mixtures and zinc oxide formulations (Example 4); format: biochemical; details: Example 4 conclusions
Method: The objective of the following experiment was to determine whether and to what extent adding an acid to a formulation containing zinc oxide had on inhibition of trypsin activity in an in vitro assay. The inhibition of trypsin-induced cleavage of a fluorescent casein peptide was measured using the EnzChek™ protease assay kit, following manufacturer's instructions (EnzChek™ Protease Assay Kits Product Information, Revised; Molecular Probes, Eugene Oreg.). Briefly, mixtures of zinc oxide and acid at different concentrations were prepared in 1×PBS (pH 7.4) and their pH was recorded as listed in the Tables 5-8. Trypsin working solution (Sigma, St. Louis, Mo., unit/mL) was prepared in digestion buffer provided in the assay kit. Stock solution of BODIPY FL casein (trypsin substrate, mg/mL) was prepared by adding 0.2 mL to the substrate vials (provided in kit), and the final substrate working solution (10 microgram/mL) was prepared by dilution in digestion buffer (pH 7.8). Following incubation of the trypsin, with or without the test materials (50 μl), with the BODIPY fluorescent casein substrate, at room temperature for one hour, fluorescence was measured (excitation 485 nm/emission 530 nm) using a SpectraMax microtiter plate reader (Molecular Devices Corporation, Sunnyvale, Calif.) and Softmax Pro software (Molecular Devices Corporation). Each experiment was performed in three replicates.

| SMILES | % synergistic activity relative to hypothetic additive value [1] [%] | other results |
| --- | --- | --- |
| [Cl-].[Cl-].[Mg+2] [Magnesium chloride] |  | trypsin inhibitory activity, result in words ([1]; Example 3, Table 4 conclusions): moderate to low levels |
| CC(=O)[O-].CC(=O)[O-].O.[Ca+2] [Calcium acetate monohydrate] | 3.10 |  |
| [O]=[Zn] [ZnO, zinc oxide] |  | trypsin inhibitory activity, result in words [2]: minimal protease activity |
| [Ca+2].[Cl-].[Cl-] [Calcium chloride] | −0.26 |  |
